IC50 data for six compounds are collected here from PubChem BioAssay AID651642 (Sanford-Burnham Center for Chemical Genomics, 2012).

One test deals with HL-1. Kind of test: protection of cardiomyocytes from stress damage, SAR follow-up, cell-based, panel, H9c2 and HL-1, H2O2, 2-deoxyglucose, ATP luminescence (AID 651642).
Another test deals with H9c2. The test is described as above.
Where [1] appears, read: H9c2/HL-1 cardiomyocyte 2-deoxyglucose damage, mean of runs, with 2-deoxyglucose, mean IC50 across panel.
The mark [2] stands for this setting: H9c2/HL-1 cardiomyocyte 2-deoxyglucose damage, run 1, with 2-deoxyglucose.
Setting [3] is: H9c2/HL-1 cardiomyocyte 2-deoxyglucose damage, run 2, with 2-deoxyglucose.
Setting [4] is: H9c2/HL-1 cardiomyocyte 2-deoxyglucose damage, run 3, with 2-deoxyglucose.
Setting [5] is: H9c2/HL-1 cardiomyocyte 2-deoxyglucose damage, run 4, with 2-deoxyglucose.
Setting [6] is: H9c2/HL-1 cardiomyocyte H2O2 oxidative damage, mean of runs, with H2O2, mean IC50 across panel.
Where [7] appears, read: H9c2/HL-1 cardiomyocyte H2O2 oxidative damage, run 1, with H2O2.
[8] abbreviates: H9c2/HL-1 cardiomyocyte H2O2 oxidative damage, run 2, with H2O2.
[9] abbreviates: H9c2/HL-1 cardiomyocyte H2O2 oxidative damage, run 3, with H2O2.
The mark [10] stands for this setting: H9c2/HL-1 cardiomyocyte H2O2 oxidative damage, run 4, with H2O2.

Take `COc1cc(-c2cc(C(=O)NCC(=O)Nc3ccc(C(C)=O)cc3)c3cc(C)ccc3n2)cc(OC)c1OC`: the IC50 – broadly, the concentration needed to halve the response being measured – in the test on HL-1 (setting [1]) is 4.22 µM; in the test on HL-1 (setting [2]), 2.65 µM; in the test with HL-1 (setting [3]), 2.65 µM; in the test with HL-1 (setting [4]), 5.75 µM; in the test on HL-1 (setting [5]), 5.85 µM; with HL-1 (setting [6]) it was 3.93 µM. Besides, the IC50 with HL-1 (setting [7]) amounted to 3.02 µM; in the test with HL-1 (setting [8]), 3.88 µM; in the test on HL-1 (setting [9]) it was 3.17 µM; in the test on HL-1 (setting [10]), 5.63 µM; with H9c2 (setting [1]), 5.83 µM; in the test on H9c2 (setting [2]), 6.75 µM. Moreover, the IC50 was 8.1 µM in the test on H9c2 (setting [3]); 3.5 µM with H9c2 (setting [4]); 4.96 µM with H9c2 (setting [5]); 1.67 µM in the test with H9c2 (setting [6]); 2.04 µM in the test on H9c2 (setting [7]); 2.05 µM in the test on H9c2 (setting [8]). For the same compound, the figures for the IC50 in the test on H9c2 (setting [9]) and in the test on H9c2 (setting [10]) were 1.09 µM and 1.49 µM, respectively.

With `COc1cc(-c2cc(C(=O)NCC(=O)Nc3ccc(C(C)=O)cc3)c3cc(F)ccc3n2)cc(OC)c1OC`, the IC50 was 2.6 µM in the test with HL-1 (setting [2]); 3.39 µM in the test with HL-1 (setting [3]); above 79 µM in the test on HL-1 (setting [4]); above 79 µM in the test on HL-1 (setting [5]); 4.71 µM in the test with HL-1 (setting [6]); 3.18 µM in the test on HL-1 (setting [7]). Further, the IC50 with HL-1 (setting [8]) is 10.4 µM; in the test with HL-1 (setting [9]) it was 0.441 µM; with HL-1 (setting [10]) it was 4.84 µM; in the test on H9c2 (setting [1]), above 79 µM; with H9c2 (setting [2]) it was above 79 µM; in the test on H9c2 (setting [3]), above 79 µM. In addition, the IC50 in the test with H9c2 (setting [4]) was above 79 µM; in the test on H9c2 (setting [5]), above 79 µM; with H9c2 (setting [7]) it was 1.54 µM; in the test on H9c2 (setting [8]), 2.4 µM; in the test with H9c2 (setting [9]) it was above 79 µM; in the test with H9c2 (setting [10]), above 79 µM.

`CCOC(=O)c1cccc(NC(=O)c2cc(-c3cc(OC)c(OC)c(OC)c3)nc3ccc(Cl)cc23)c1`: the IC50 with HL-1 (setting [1]), in the test with HL-1 (setting [2]), in the test with HL-1 (setting [3]), in the test with HL-1 (setting [4]), with HL-1 (setting [5]) and in the test on HL-1 (setting [7]) was above 79 µM throughout. Moreover, the half-maximal inhibitory concentration (IC50) was above 79 µM in the test with HL-1 (setting [8]); 1.79 µM in the test with HL-1 (setting [9]); 4.09 µM with HL-1 (setting [10]); above 79 µM with H9c2 (setting [1]); above 79 µM with H9c2 (setting [2]); above 79 µM in the test on H9c2 (setting [3]). The IC50 in the test with H9c2 (setting [4]) is above 79 µM; in the test with H9c2 (setting [5]), above 79 µM; in the test on H9c2 (setting [7]), 3.38 µM; in the test with H9c2 (setting [8]) it was 21.1 µM; with H9c2 (setting [9]), above 79 µM; with H9c2 (setting [10]), above 79 µM.

For the compound `CCNC(=O)c1cccc(NC(=O)c2cc(-c3cc(OC)c(OC)c(OC)c3)nc3ccccc23)c1`, the IC50 is 9.33 µM in the test with HL-1 (setting [1]); 5.11 µM with HL-1 (setting [2]); 6.24 µM in the test on HL-1 (setting [3]); 13 µM with HL-1 (setting [4]); 13 µM with HL-1 (setting [5]); 6.69 µM in the test with HL-1 (setting [6]). The IC50 stood at 3.81 µM with HL-1 (setting [7]); 11.5 µM in the test with HL-1 (setting [8]); 3.71 µM with HL-1 (setting [9]); 7.74 µM in the test with HL-1 (setting [10]); 22.2 µM in the test with H9c2 (setting [1]); 21.3 µM with H9c2 (setting [2]). Besides, the IC50 is 22.2 µM with H9c2 (setting [3]); 22.4 µM with H9c2 (setting [4]); 22.8 µM with H9c2 (setting [5]); 4 µM in the test with H9c2 (setting [6]); 4.85 µM with H9c2 (setting [7]); 4.86 µM with H9c2 (setting [8]). The half-maximal inhibitory concentration (IC50) in the test on H9c2 (setting [9]) is 2.88 µM; in the test with H9c2 (setting [10]) it was 3.41 µM.

In the case of `COc1ccc2c(c1OC)C(=O)N1c3ccccc3C(=O)N(Cc3ccccc3Br)C21` (centres undefined), the IC50 with HL-1 (setting [1]) is 13.4 µM; in the test on HL-1 (setting [2]), 2.54 µM; with HL-1 (setting [3]) it was 2.85 µM; with HL-1 (setting [4]), 13.9 µM; with HL-1 (setting [5]), 34.4 µM; with HL-1 (setting [6]), above 79 µM. In addition, the IC50 in the test with HL-1 (setting [7]), with HL-1 (setting [8]), in the test with HL-1 (setting [9]), in the test on HL-1 (setting [10]), with H9c2 (setting [1]) and with H9c2 (setting [2]) was above 79 µM each time. In addition, the IC50 is above 79 µM with H9c2 (setting [3]); above 79 µM in the test with H9c2 (setting [4]); above 79 µM in the test with H9c2 (setting [5]); above 79 µM with H9c2 (setting [7]); 2.03 µM in the test with H9c2 (setting [8]); above 79 µM in the test on H9c2 (setting [9]). In the test on H9c2 (setting [10]), the IC50 was above 79 µM.

As for `COc1ccc2c(c1OC)C(=O)N1c3ccccc3C(=O)N(Cc3ccc(C)cc3C)C21` (centres undefined), the IC50 in the test on HL-1 (setting [1]), with HL-1 (setting [2]), with HL-1 (setting [3]), with HL-1 (setting [4]), with HL-1 (setting [5]) and in the test on HL-1 (setting [7]) was above 79 µM each time. Further, the IC50 in the test with HL-1 (setting [8]), in the test with HL-1 (setting [9]), with HL-1 (setting [10]), in the test on H9c2 (setting [1]), with H9c2 (setting [2]) and in the test on H9c2 (setting [3]) was above 79 µM throughout. Besides, the IC50 in the test on H9c2 (setting [4]), in the test with H9c2 (setting [5]), in the test on H9c2 (setting [6]), in the test on H9c2 (setting [7]), in the test with H9c2 (setting [8]) and in the test with H9c2 (setting [9]) was above 79 µM in each case. In the test on H9c2 (setting [10]), this compound had an IC50 above 79 µM.
